The text below walks through data of US20140303246A1, “USE OF ADAMANTANE DERIVATIVES FOR THE TREATMENT OF ACTINIC KERATOSIS” (MERZ Pharma GmbH & Co. KGaA, priority 2011, published 2014).

One data set relates to NHEK cells. Put plainly: Release of cytoplasmatic lactate dehydrogenase (LDH) to monitor cell death / membrane damage. Type of data set: cell-based, human. How it is done: (§1) For each of these compounds, the same experiments were performed in an analogous fashion to the compound of Example 1 except that the test items were prepared in separate plates starting with the double concentrated maximal test concentration followed by a 1:3 serial dilution and then added to the cells. The test items were tested at 6 replicates/concentration. In addition to metabolic activity also the release of cytoplasmatic-lactate dehydrogenase (LDH) was used to monitor cell death. Early release (after 6 hrs) indicate membrane damage a primary mode of action

For data set [1], the system named is primary human epidermal keratinocytes (NHEK). Put plainly: Resazurin assay, viability of cells by metabolic activity. Type of data set: cell-based. How it is done:
(§2) By using primary human epidermal keratinocytes (NHEK, FIG. 1) the cytolytic potential of several drug compound was investigated.
(§3) The viability of the cells was monitored by their metabolic activity using the Resazurin—assay. Eight different concentrations (up to 1 mM) of amantadine were investigated. Viability of the cells was plotted against the different concentration of test compound.
(§4) From the resulting sigmoid-curve the IC50 value for the cytolytic effect was determined and given in the respective figure. FIG. 1 depicts the relative viability vs. the concentration on NHEK cells using metabolic activity as read-out.
as §1
Background: The colour change of resazurin is a common sign of viable cells or microbes.

Test in data set [2]: as above
Type of data set: cell-based. Conditions: human, primary human epidermal keratinocytes (NHEK), metabolic activity (Resazurin) as read-out, read-out: IC50 for the cytolytic/cytotoxic effect based on metabolic activity. As for the experimental part:
as §2, §3, §4, §1

Regarding `CC12CC3CC(C)(C1)CC(N)(C3)C2` [Memantine, 3,5-dimethyladamantan-1-amine], the “LDH-release at 6 hrs (early membrane damage)” value in the data set with NHEK cells is recorded as “early membrane damage”. Moreover, in data set [1], the “cytotoxic effect (in words)” value is given as “clear cytotoxic activity”. Moreover, the IC50 in data set [2] came to 330 µM.
For `CC(N)C12CC3CC(CC(C3)C1)C2` (stereo not shown) [Rimantadine, 1-(1-adamantyl)ethanamine], the IC50 in data set [2] amounted to 660 µM.
